What was measured:
[1] = target: T1, Fatty-acid amide hydrolase 1 (Homo sapiens, UniProt O00519); test: Inhibition of Homo sapiens (human) recombinant fatty acid amide hydrolase assessed as inhibition of [3H]-AEA hydrolysis after 10 min by liquid scintillation counting
T1 sequence (O00519 whole entry): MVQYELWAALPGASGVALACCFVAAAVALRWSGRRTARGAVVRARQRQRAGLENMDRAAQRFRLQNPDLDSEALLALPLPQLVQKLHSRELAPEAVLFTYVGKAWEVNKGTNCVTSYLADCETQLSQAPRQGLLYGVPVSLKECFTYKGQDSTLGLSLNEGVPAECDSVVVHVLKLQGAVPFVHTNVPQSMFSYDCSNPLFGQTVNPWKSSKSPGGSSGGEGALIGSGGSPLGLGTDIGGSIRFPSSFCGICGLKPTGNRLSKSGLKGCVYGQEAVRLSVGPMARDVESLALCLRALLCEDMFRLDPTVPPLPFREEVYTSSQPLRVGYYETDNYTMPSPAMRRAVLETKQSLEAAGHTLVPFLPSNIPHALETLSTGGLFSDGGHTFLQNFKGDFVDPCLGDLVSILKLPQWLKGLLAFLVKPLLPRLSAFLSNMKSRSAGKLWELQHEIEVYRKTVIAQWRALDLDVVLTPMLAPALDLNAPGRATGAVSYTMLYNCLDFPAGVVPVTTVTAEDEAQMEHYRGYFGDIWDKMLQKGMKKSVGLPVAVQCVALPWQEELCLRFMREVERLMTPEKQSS

Monoglyceride lipase = target: T2, Monoglyceride lipase (Homo sapiens, UniProt Q99685); test: Inhibition of Homo sapiens (human) recombinant monoacylglycerol lipase assessed as inhibition of [3H]-2-oleolylglycerol hydrolysis after 10 min by liquid scintillation counting
T2 sequence (Q99685 whole entry): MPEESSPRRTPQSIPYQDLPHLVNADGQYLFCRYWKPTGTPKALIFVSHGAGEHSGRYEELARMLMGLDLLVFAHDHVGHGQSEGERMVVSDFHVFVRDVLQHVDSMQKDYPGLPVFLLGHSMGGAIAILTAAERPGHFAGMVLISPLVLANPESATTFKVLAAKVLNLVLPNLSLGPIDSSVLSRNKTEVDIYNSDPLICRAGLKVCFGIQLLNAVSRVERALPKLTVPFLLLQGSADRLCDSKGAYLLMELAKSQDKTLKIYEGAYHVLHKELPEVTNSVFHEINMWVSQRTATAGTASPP

SMILES | IC50 [1] | IC50 (Monoglyceride lipase)
COC(=O)c1ccc(C(=S)N2CCOCC2)cc1 | > 1000 µM | 30.9 µM
O=C(c1ccccc1Cl)N1CCOCC1 [(2-CHLOROPHENYL)(MORPHOLINO)METHANONE] | > 1000 µM | > 1000 µM
Oc1ccccc1C(=S)N1CCOCC1 [(2-HYDROXYPHENYL)(MORPHOLINO)METHANETHIONE] | > 1000 µM | 60.3 µM
S=C(c1ccc(Cl)cc1Cl)N1CCOCC1 [(2,4-DICHLOROPHENYL)(MORPHOLINO)METHANETHIONE] | > 1000 µM | > 1000 µM
S=C(c1cccc(Cl)c1)N1CCOCC1 [(3-CHLOROPHENYL)(MORPHOLINO)METHANETHIONE] | > 1000 µM | > 1000 µM
Oc1ccc(C(=S)NCCc2ccccc2)cc1O | 724 µM | 525 µM
S=C(c1ccccc1)N1CCOCC1 [MORPHOLINO(PHENYL)METHANETHIONE] | > 1000 µM | > 1000 µM
Fc1ccc(C(=S)NCCc2ccccc2)cc1 | > 1000 µM | > 1000 µM
S=C(NCCc1ccccc1)c1ccc(Br)cc1 | > 1000 µM | 97.7 µM
Clc1ccc(CN2CCOCC2)cc1 [4-(4-CHLOROBENZYL)MORPHOLINE] | > 1000 µM | > 1000 µM
Oc1ccc(C(=S)N2CCOCC2)cc1 [(4-HYDROXYPHENYL)(MORPHOLINO)METHANETHIONE] | 562 µM | 204 µM
S=C(c1ccc(Cl)cc1)N1CCOCC1 [(4-CHLOROPHENYL)(MORPHOLINO)METHANETHIONE] | 302 µM | 77.6 µM
S=C(c1ccc(Cl)c(Cl)c1)N1CCOCC1 [(3,4-DICHLOROPHENYL)(MORPHOLINO)METHANETHIONE] | > 1000 µM | > 1000 µM
S=C(Cc1ccc(-c2ccccc2)cc1)N1CCOCC1 | 30.9 µM | 5.75 µM
Clc1ccccc1CN1CCOCC1 | > 1000 µM | > 1000 µM
S=C(c1ccc(Br)cc1)N1CCOCC1 [(4-BROMOPHENYL)(MORPHOLINO)METHANETHIONE] | > 1000 µM | 31.6 µM
O=C(c1ccc(Cl)cc1)N1CCOCC1 [(4-CHLOROPHENYL)(MORPHOLINO)METHANONE] | > 1000 µM | > 1000 µM
S=C(Cc1ccc(-c2ccccc2)cc1)NCCc1ccccc1 | 724 µM | 537 µM
Cc1cccc(C(=S)N2CCCCC2)c1 | 61.7 µM | > 1000 µM

SMILES | IC50 [1] | IC50 (Monoglyceride lipase)
S=C(Cc1ccc(Cl)cc1)N1CCOCC1 | 77.6 µM | 14.8 µM
O=[N+]([O-])c1cccc(C(=S)N2CCOCC2)c1 | 245 µM | 9.55 µM
S=C(c1ccc(C2CCCCC2)cc1)N1CCOCC1 | > 1000 µM | > 1000 µM
c1ccc(-c2ccc(CN3CCOCC3)cc2)cc1 [4-(BIPHENYL-4-YLMETHYL)MORPHOLINE] | > 1000 µM | > 1000 µM
S=C(NCCc1ccccc1)c1ccccc1 [N-PHENETHYLBENZOTHIOAMIDE] | > 1000 µM | > 1000 µM
COC(=O)c1ccc(C(=S)NCCc2ccccc2)cc1 | > 1000 µM | 26.3 µM
S=C(NCCc1ccccc1)c1ccc(Cl)c(Cl)c1 | 53.7 µM | 75.9 µM
S=C(c1ccccc1)N1CCCCC1 | > 1000 µM | > 1000 µM
S=C(c1ccc(-c2ccccc2)cc1)N1CCOCC1 | 30.9 µM | 19.5 µM
S=C(c1ccccc1Cl)N1CCOCC1 | > 1000 µM | 20 µM
S=C(NCCc1ccccc1)c1ccccc1Cl | > 1000 µM | 166 µM
Cc1ccc(CC(=S)N2CCOCC2)cc1 | 49 µM | 24 µM
S=C(NCCc1ccccc1)c1ccc(Cl)cc1Cl | > 1000 µM | 79.4 µM
O=C(c1ccc(-c2ccccc2)cc1)N1CCOCC1 | > 1000 µM | > 1000 µM
S=C(Cc1ccccc1)N1CCOCC1 | > 1000 µM | > 1000 µM
COc1ccc(CC(=S)N2CCOCC2)cc1OC | > 1000 µM | > 1000 µM
S=C(Cc1ccccc1Cl)N1CCOCC1 | > 1000 µM | 24.5 µM
CN(C)c1ccc(C(=S)N2CCOCC2)cc1 [(4-(DIMETHYLAMINO)PHENYL)(MORPHOLINO)METHANETHIONE] | > 1000 µM | > 1000 µM
S=C(NCCc1ccccc1)c1ccc(Cl)cc1 | 407 µM | 437 µM

From ChEMBL document CHEMBL3045859, “Search for monoglyceride lipase inhibitors: synthesis and screening of arylthioamides derivatives” (Med Chem Res, 2009)
